# Assay results reported in publication PMC4971072, “Chemically Homogenous Compounds with Antagonistic Properties at All α1-Adrenoceptor Subtypes but not β1-Adrenoceptor Attenuate Adrenaline-Induced Arrhythmia in Rats” (Frontiers in Pharmacology, 2016).
# Structures can show the parent of a compound that is named as a salt. Marks after values point to notes of the source that are not given here.
# Experiments:
# α1-adrenoceptor = α1-adrenoceptor radioligand binding assay ([3H]-prazosin, rat cerebral cortex); conditions: read-out: Adrenergic receptors Ki α1
# Protocol: The α1- and β1-adrenoceptor radioligand binding assay was performed on rat cerebral cortex. […] The cell pellet was resuspended in the Tris–HCl buffer and centrifuged again. Radioligand binding assays were performed in plates (MultiScreen/Millipore). […] The incubation was terminated by rapid filtration through glass fiber filters (Whatman GF/C) using a vacuum manifold (Millipore). The filters were then washed twice with the assay buffer and placed in scintillation vials with a liquid scintillation cocktail. […] All the assays were made in duplicate and the inhibitory constants (Ki) were estimated.
# LO–labeled ligand concentration, KD–dissociation constant of labeled ligand
# normal ECG in rats = assay: The effect on normal electrocardiogram in rats; type: in vivo, rat; conditions: anesthetized rats
# Protocol: The experiment was carried out to exclude the influence of tested compounds on normal ECG. […] The influence on QRS complex, PQ interval, heart rate (RR), and QTc interval was determined.
# α1A-adrenoceptors = molecular target: T1, α1A-adrenoceptors (Rattus norvegicus, UniProt P43140); assay: Functional bioassay, isolated rat tail artery, noradrenaline contraction; type: biochemical; conditions: noradrenaline as agonist
# T1 construct: the middle part of the ventral caudal artery was removed; from tissue; host or cells: isolated rat tail (ventral caudal) artery rings
# T1 sequence (P43140 1-466): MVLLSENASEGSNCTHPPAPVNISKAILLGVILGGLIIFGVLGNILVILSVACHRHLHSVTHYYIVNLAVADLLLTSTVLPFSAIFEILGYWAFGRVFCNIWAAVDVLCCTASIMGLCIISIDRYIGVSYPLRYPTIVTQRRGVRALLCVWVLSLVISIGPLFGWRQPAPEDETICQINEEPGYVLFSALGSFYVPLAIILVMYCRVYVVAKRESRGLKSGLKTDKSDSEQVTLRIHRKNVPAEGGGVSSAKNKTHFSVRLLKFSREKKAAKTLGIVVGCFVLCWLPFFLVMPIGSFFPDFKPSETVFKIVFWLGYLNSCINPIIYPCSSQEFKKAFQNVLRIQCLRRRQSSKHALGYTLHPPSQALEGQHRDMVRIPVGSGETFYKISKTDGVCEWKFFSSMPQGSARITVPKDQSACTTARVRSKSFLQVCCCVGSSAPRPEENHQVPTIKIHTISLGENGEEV
# Protocol: The isolated artery, cut into ~4 mm long rings, was then horizontally put up between two stainless steel hooks (diameter 0.15 mm). One hook was fastened to the bottom of the chamber and the other to an isometric FDT10-A force displacement transducer (DMT Model 750TOBS, Denmark), linked with Powerlab 4/26 analyzer (ADInstruments), and processed by LabChart 7 software. […] The initial optimal tissues tension was set at 0.75 g. Chloroethylclonidine (3 μM) as the preferential α1B-adrenoreceptor alkylating agent was used during incubation and after 30 min it was completely washed off. Through 100 min of equilibration tissues were stimulated with noradrenaline (1 μM) four times with washing out until the contractile response become constant. Two cumulative concentration-response curves to noradrenaline, at an interval of 60 min, were established on each arterial ring both in the presence and absence of antagonist. The incubation with antagonists went on for 30 min. The experiments were carried out in the constant presence of yohimbine (0.1 μM) and propranolol (1 μM) to block α2- and β-adrenoceptors, respectively in order to minimize the involvement of these adrenoceptors in the response to noradrenaline.
# Data are means ± S.E.M. of at least 4 separate experiments. To establish Hill slopes for the agonist concentration–response curves and calculate EC50 values, curves were fitted to all the data by non-linear regression. The EC50 value in the presence and absence of antagonists was used to ascertain the concentration ratio (CR). Schild analysis was performed.
# [1] = tested on: adrenaline-induced arrhythmia in rats; assay: Therapeutic antiarrhythmic activity in adrenaline-induced arrhythmia; type: in vivo, rat; conditions: i.v. at ED84 at the peak of adrenaline-induced arrhythmia (20 μg/kg)
# Protocol: The ECG was recorded constantly for 5 min as well as in the 10th and 15th min of the experiment.
# [2] = tested on: lipid peroxidation in rat brain homogenate; assay: Lipid peroxidation in rat brain homogenate (TBARS), antioxidant effect; type: biochemical; conditions: 10^−3 M
# Protocol: The rat brain homogenate containing 10 mg tissue/ml was prepared in 0.9% saline. The rates of membrane lipid peroxidation were measured by the formation of thiobarbituric acid reactive substances (TBARS). Rat brain homogenates (1 ml) were incubated at 37°C for 5 min with 10 μl of a tested compound or vehicle. Lipid peroxidation was initiated by the addition of 50 μl of 0.5 mM FeCl2 and 50 μl of 2.0 mM ascorbic acid. After 30 min of incubation, the reaction was stopped by adding 0.1 ml of 0.2% butylated hydroxytoluene (BHT). Thiobarbituric acid reagent was then added and the mixture was heated for 15 min in a boiling water bath.
# [3] = i.p. at ED84, 0 min (initial values)
smiles,measurement,setting,value
"COc1ccccc1N1CCN(CCCOc2cc(C)ccc2Cl)CC1 [HBK-16, 1N-[3-(2-chloro-5-methylphenoxy)propyl]-4N-(2-methoxyphenyl)piperazine hydrochloride]",Ki,α1-adrenoceptor,5 nM
same,"influence on ECG parameters (PQ interval, QRS complex, QTc interval)",normal ECG in rats; i.p. at ED84,"did not influence PQ interval, QRS complex or QTc interval"
same,reduction of heart rate,"normal ECG in rats; i.p. at ED84, over the period of significant effect vs. initial values",11−13%
same,Beats/min (ECG),normal ECG in rats; [3],329.6 ± 9.8 Beats/min
same,PQ (ECG),normal ECG in rats; [3],64.4 ± 1.1 ms
same,QRS (ECG),normal ECG in rats; [3],21.7 ± 2.2 ms
same,QT (ECG),normal ECG in rats; [3],51.4 ± 3.5 ms
same,"QTc (ECG, Bazett)",normal ECG in rats; [3],120.5 ± 8.7 ms
same,Beats/min (ECG),"normal ECG in rats; i.p. at ED84, 5 min",331.4 ± 12.5 Beats/min
same,PQ (ECG),"normal ECG in rats; i.p. at ED84, 5 min",63.7 ± 1.1 ms
same,QRS (ECG),"normal ECG in rats; i.p. at ED84, 5 min",21.7 ± 2.2 ms
same,QT (ECG),"normal ECG in rats; i.p. at ED84, 5 min",51.2 ± 3.5 ms
same,"QTc (ECG, Bazett)","normal ECG in rats; i.p. at ED84, 5 min",120.7 ± 9.7 ms
same,Beats/min (ECG),"normal ECG in rats; i.p. at ED84, 10 min",330.1 ± 12.4 Beats/min
same,PQ (ECG),"normal ECG in rats; i.p. at ED84, 10 min",63.6 ± 0.9 ms
same,QRS (ECG),"normal ECG in rats; i.p. at ED84, 10 min",21.7 ± 2.2 ms
same,QT (ECG),"normal ECG in rats; i.p. at ED84, 10 min",51.2 ± 3.3 ms
same,"QTc (ECG, Bazett)","normal ECG in rats; i.p. at ED84, 10 min",120.2 ± 8.8 ms
same,Beats/min (ECG),"normal ECG in rats; i.p. at ED84, 15 min",319.4 ± 10.3 Beats/min
same,PQ (ECG),"normal ECG in rats; i.p. at ED84, 15 min",63.9 ± 1.1 ms
same,QRS (ECG),"normal ECG in rats; i.p. at ED84, 15 min",21.7 ± 2.2 ms
same,QT (ECG),"normal ECG in rats; i.p. at ED84, 15 min",50.1 ± 3.6 ms
same,"QTc (ECG, Bazett)","normal ECG in rats; i.p. at ED84, 15 min",115.8 ± 9.6 ms
same,Beats/min (ECG),"normal ECG in rats; i.p. at ED84, 20 min",310.6 ± 9.8 Beats/min
same,PQ (ECG),"normal ECG in rats; i.p. at ED84, 20 min",65.1 ± 1.2 ms
same,QRS (ECG),"normal ECG in rats; i.p. at ED84, 20 min",21.7 ± 2.2 ms
same,QT (ECG),"normal ECG in rats; i.p. at ED84, 20 min",51.4 ± 3.1 ms
same,"QTc (ECG, Bazett)","normal ECG in rats; i.p. at ED84, 20 min",117.3 ± 8.7 ms
same,Beats/min (ECG),"normal ECG in rats; i.p. at ED84, 30 min",302.8 ± 11.0 Beats/min
same,PQ (ECG),"normal ECG in rats; i.p. at ED84, 30 min",64.4 ± 1.1 ms
same,QRS (ECG),"normal ECG in rats; i.p. at ED84, 30 min",21.7 ± 2.2 ms
same,QT (ECG),"normal ECG in rats; i.p. at ED84, 30 min",52.7 ± 3.7 ms
same,"QTc (ECG, Bazett)","normal ECG in rats; i.p. at ED84, 30 min",119.0 ± 10.3 ms
same,Beats/min (ECG),"normal ECG in rats; i.p. at ED84, 40 min",294.1 ± 12.2^a Beats/min
same,PQ (ECG),"normal ECG in rats; i.p. at ED84, 40 min",65.9 ± 0.8 ms
same,QRS (ECG),"normal ECG in rats; i.p. at ED84, 40 min",21.7 ± 2.2 ms
same,QT (ECG),"normal ECG in rats; i.p. at ED84, 40 min",53.5 ± 2.8 ms
same,"QTc (ECG, Bazett)","normal ECG in rats; i.p. at ED84, 40 min",118.9 ± 8.4 ms
same,Beats/min (ECG),"normal ECG in rats; i.p. at ED84, 50 min",291.4 ± 13.0^b Beats/min
same,PQ (ECG),"normal ECG in rats; i.p. at ED84, 50 min",67.3 ± 1.6 ms
same,QRS (ECG),"normal ECG in rats; i.p. at ED84, 50 min",22.0 ± 2.1 ms
same,QT (ECG),"normal ECG in rats; i.p. at ED84, 50 min",54.7 ± 2.8 ms
same,"QTc (ECG, Bazett)","normal ECG in rats; i.p. at ED84, 50 min",121.1 ± 8.7 ms
same,Beats/min (ECG),"normal ECG in rats; i.p. at ED84, 60 min",288.0 ± 13.8^b Beats/min
same,PQ (ECG),"normal ECG in rats; i.p. at ED84, 60 min",68.2 ± 0.9 ms
same,QRS (ECG),"normal ECG in rats; i.p. at ED84, 60 min",22.3 ± 2.0 ms
same,QT (ECG),"normal ECG in rats; i.p. at ED84, 60 min",55.5 ± 2.4 ms
same,"QTc (ECG, Bazett)","normal ECG in rats; i.p. at ED84, 60 min",122.0 ± 7.7 ms
same,"Schild slope ± S.E.M., α1A",α1A-adrenoceptors,1.06 ± 0.08
same,Kb,"α1A-adrenoceptors; read-out: pA2 ± S.E.M., α1A (converted)",1.78 nM
same,therapeutic antiarrhythmic activity (premature ventricular contractions),[1],restored normal heart rhythm
same,inhibition of lipid peroxidation (in words),[2],inhibited lipid peroxidation
same,% reduction of absorbance (% antioxidant activity),[2]; TBARs at 532 nm,16.63%
same,Absorbance,[2]; TBARs at 532 nm,0.752 ± 0.007
